Test results as given in US20070049564A1 (Wyeth, priority 2005, published 2007).
≈ marks a conversion by molar mass, not a printed value. Like-named read-outs stand apart in the source and are kept apart here.

Legend:
Assay in all cases: MIC, broth microdilution
E. faecium GC 4556 = settings: Enterococcus faecium
S. pneumoniae+ GC 4465 = settings: Streptococcus pneumoniae
E. coli GC 2231 = settings: Escherichia coli
c. albicans GC 3066 = system: c. albicans GC 3066
E. faecium GC 2243 = settings: Enterococcus faecium
S. aureus GC 1131 = settings: Staphylococcus aureus
S. epidermidis GC 4935 = settings: Staphylococcus epidermidis
S. aureus GC 1079 = settings: Staphylococcus aureus
Method: Antimicrobial susceptibility testing. The in vitro activities of the antibiotics are determined by the broth microdilution method as recommended by the National Committee for Clinical Laboratory Standards (NCCLS) (1). Mueller-Hinton II broth (MHBII)(BBL Cockeysville, Md.) is the medium employed in the testing procedures. Microtiter plates containing serial dilutions of each antimicrobial agent are inoculated with each organism to yield the appropriate density (10^5 CFU/ml) in a 100 μl final volume. The plates are incubated for 18-22 hours at 35° C. in ambient air.
Representative compounds were first incubated in mouse serum for an hour prior to the in vitro testing against a panel of selected gram-positive and gram-negative bacteria strains. All compounds were also pre-incubated in water for an hour prior to testing as control. Representative compounds of Formula I were incubated in human serum prior to MIC determination.

S. pneumoniae* GC 4465 = settings: Streptococcus pneumoniae
S. aureus GC 6335 = settings: Staphylococcus aureus
S. pyogenes GC 4563 = settings: Streptococcus pyogenes
E. coli GC 2272 = settings: Escherichia coli
E. coli GC 2234 = settings: Escherichia coli
E. coli GC 3226 = settings: Escherichia coli
S. aureus GC 6466 = settings: Staphylococcus aureus
S. typhimurium GC 2172 = settings: Salmonella enterica, TYPHIMURIUM
E. coli GC 2232 = settings: Escherichia coli
S. aureus GC 2216 = settings: Staphylococcus aureus
E. faecalis GC 2267 = settings: Enterococcus faecalis
[1] = read-out: MINIMAL INHIBITORY CONCENTRATION MIC, Human Serum
[2] = read-out: MINIMAL INHIBITORY CONCENTRATION MIC, Mouse Serum
[3] = read-out: MINIMAL INHIBITORY CONCENTRATION MIC, Water

CCCCOC(=O)N(CC(=O)Nc1cc(N(C)C)c2c(c1O)C(=O)C1=C(O)[C@]3(O)C(=O)C(C(N)=O)=C(O)[C@@H](N(C)C)[C@@H]3C[C@@H]1C2)C(C)(C)C [Example 58, butyl 2-{[(5aR,6aS,7S,10aS)-9-(aminocarbonyl)-4,7-bis(dimethylamino)-1,8,10a,11-tetrahydroxy-10,12-dioxo-5,5a,6,6a,7,10,10a,12-octahydrotetracen-2-yl]amino}-2-oxoethyl(tert-butyl)carbamate]
MIC (E. faecium GC 4556; GC4556, read-out: MINIMAL INHIBITORY CONCENTRATION MIC, Human Serum): 4 µg/mL (≈ 5.83 µM) | MIC (E. faecium GC 4556; GC4556, read-out: MINIMAL INHIBITORY CONCENTRATION MIC, Mouse Serum): 2 µg/mL (≈ 2.92 µM) | MIC (E. faecium GC 4556; GC4556, read-out: MINIMAL INHIBITORY CONCENTRATION MIC, Water): 4 µg/mL (≈ 5.83 µM) | MIC (S. pneumoniae+ GC 4465; [1]): 4 µg/mL (≈ 5.83 µM) | MIC (S. pneumoniae+ GC 4465; [2]): 4 µg/mL (≈ 5.83 µM) | MIC (S. pneumoniae+ GC 4465; [3]): 8 µg/mL (≈ 11.7 µM) | MIC (E. coli GC 2231; GC2231, read-out: MINIMAL INHIBITORY CONCENTRATION MIC, Human Serum): > 64 µg/mL | MIC (E. coli GC 2231; GC2231, read-out: MINIMAL INHIBITORY CONCENTRATION MIC, Mouse Serum): > 64 µg/mL | MIC (E. coli GC 2231; GC2231, read-out: MINIMAL INHIBITORY CONCENTRATION MIC, Water): > 64 µg/mL | MIC (c. albicans GC 3066; Candida albicans, GC3066, read-out: MINIMAL INHIBITORY CONCENTRATION MIC): > 64 µg/mL | MINIMAL INHIBITORY CONCENTRATION MIC (c. albicans GC 3066; Human Serum): >64 UG/ML | MINIMAL INHIBITORY CONCENTRATION MIC (c. albicans GC 3066; Mouse Serum): >64 UG/ML | MIC (E. faecium GC 2243; GC2243, read-out: MINIMAL INHIBITORY CONCENTRATION MIC, Human Serum): 4 µg/mL (≈ 5.83 µM) | MIC (E. faecium GC 2243; GC2243, read-out: MINIMAL INHIBITORY CONCENTRATION MIC, Mouse Serum): 2 µg/mL (≈ 2.92 µM) | MIC (E. faecium GC 2243; GC2243, read-out: MINIMAL INHIBITORY CONCENTRATION MIC, Water): 4 µg/mL (≈ 5.83 µM) | MIC (S. aureus GC 1131; GC1131, read-out: MINIMAL INHIBITORY CONCENTRATION MIC, Human Serum): 4 µg/mL (≈ 5.83 µM) | MIC (S. aureus GC 1131; GC1131, read-out: MINIMAL INHIBITORY CONCENTRATION MIC, Mouse Serum): 2 µg/mL (≈ 2.92 µM) | MIC (S. aureus GC 1131; GC1131, read-out: MINIMAL INHIBITORY CONCENTRATION MIC, Water): 4 µg/mL (≈ 5.83 µM) | MIC (S. epidermidis GC 4935; GC4935, read-out: MINIMAL INHIBITORY CONCENTRATION MIC, Human Serum): 4 µg/mL (≈ 5.83 µM) | MIC (S. epidermidis GC 4935; GC4935, read-out: MINIMAL INHIBITORY CONCENTRATION MIC, Mouse Serum): 4 µg/mL (≈ 5.83 µM) | MIC (S. epidermidis GC 4935; GC4935, read-out: MINIMAL INHIBITORY CONCENTRATION MIC, Water): 8 µg/mL (≈ 11.7 µM) | MIC (S. aureus GC 1079; GC1079, read-out: MINIMAL INHIBITORY CONCENTRATION MIC, Human Serum): 4 µg/mL (≈ 5.83 µM) | MIC (S. aureus GC 1079; GC1079, read-out: MINIMAL INHIBITORY CONCENTRATION MIC, Mouse Serum): 2 µg/mL (≈ 2.92 µM) | MIC (S. aureus GC 1079; GC1079, read-out: MINIMAL INHIBITORY CONCENTRATION MIC, Water): 8 µg/mL (≈ 11.7 µM) | MIC (S. pneumoniae* GC 4465; [1]): 4 µg/mL (≈ 5.83 µM) | MIC (S. pneumoniae* GC 4465; [2]): 2 µg/mL (≈ 2.92 µM) | MIC (S. pneumoniae* GC 4465; [3]): 2 µg/mL (≈ 2.92 µM) | MIC (S. aureus GC 6335; GC6335, read-out: MINIMAL INHIBITORY CONCENTRATION MIC, Human Serum): 4 µg/mL (≈ 5.83 µM) | MIC (S. aureus GC 6335; GC6335, read-out: MINIMAL INHIBITORY CONCENTRATION MIC, Mouse Serum): 4 µg/mL (≈ 5.83 µM) | MIC (S. aureus GC 6335; GC6335, read-out: MINIMAL INHIBITORY CONCENTRATION MIC, Water): 4 µg/mL (≈ 5.83 µM) | MIC (S. pyogenes GC 4563; GC4563, read-out: MINIMAL INHIBITORY CONCENTRATION MIC, Human Serum): 4 µg/mL (≈ 5.83 µM) | MIC (S. pyogenes GC 4563; GC4563, read-out: MINIMAL INHIBITORY CONCENTRATION MIC, Mouse Serum): 4 µg/mL (≈ 5.83 µM) | MIC (S. pyogenes GC 4563; GC4563, read-out: MINIMAL INHIBITORY CONCENTRATION MIC, Water): 4 µg/mL (≈ 5.83 µM) | MIC (E. coli GC 2272; GC2272, read-out: MINIMAL INHIBITORY CONCENTRATION MIC, Human Serum): > 64 µg/mL | MIC (E. coli GC 2272; GC2272, read-out: MINIMAL INHIBITORY CONCENTRATION MIC, Mouse Serum): > 64 µg/mL | MIC (E. coli GC 2272; GC2272, read-out: MINIMAL INHIBITORY CONCENTRATION MIC, Water): > 64 µg/mL | MIC (E. coli GC 2234; GC2234, read-out: MINIMAL INHIBITORY CONCENTRATION MIC, Human Serum): > 64 µg/mL | MIC (E. coli GC 2234; GC2234, read-out: MINIMAL INHIBITORY CONCENTRATION MIC, Mouse Serum): > 64 µg/mL | MIC (E. coli GC 2234; GC2234, read-out: MINIMAL INHIBITORY CONCENTRATION MIC, Water): > 64 µg/mL | MIC (E. coli GC 3226; GC3226, read-out: MINIMAL INHIBITORY CONCENTRATION MIC, Human Serum): > 64 µg/mL | MIC (E. coli GC 3226; GC3226, read-out: MINIMAL INHIBITORY CONCENTRATION MIC, Mouse Serum): > 64 µg/mL | MIC (E. coli GC 3226; GC3226, read-out: MINIMAL INHIBITORY CONCENTRATION MIC, Water): > 64 µg/mL | MIC (S. aureus GC 6466; GC6466, read-out: MINIMAL INHIBITORY CONCENTRATION MIC, Human Serum): 4 µg/mL (≈ 5.83 µM) | MIC (S. aureus GC 6466; GC6466, read-out: MINIMAL INHIBITORY CONCENTRATION MIC, Mouse Serum): 2 µg/mL (≈ 2.92 µM) | MIC (S. aureus GC 6466; GC6466, read-out: MINIMAL INHIBITORY CONCENTRATION MIC, Water): 4 µg/mL (≈ 5.83 µM) | MIC (S. typhimurium GC 2172; [1]): > 64 µg/mL | MIC (S. typhimurium GC 2172; [2]): > 64 µg/mL | MIC (S. typhimurium GC 2172; [3]): > 64 µg/mL | MIC (E. coli GC 2232; GC2232, read-out: MINIMAL INHIBITORY CONCENTRATION MIC, Human Serum): > 64 µg/mL | MIC (E. coli GC 2232; GC2232, read-out: MINIMAL INHIBITORY CONCENTRATION MIC, Mouse Serum): > 64 µg/mL | MIC (E. coli GC 2232; GC2232, read-out: MINIMAL INHIBITORY CONCENTRATION MIC, Water): > 64 µg/mL | MIC (S. aureus GC 2216; GC2216, read-out: MINIMAL INHIBITORY CONCENTRATION MIC, Human Serum): 4 µg/mL (≈ 5.83 µM) | MIC (S. aureus GC 2216; GC2216, read-out: MINIMAL INHIBITORY CONCENTRATION MIC, Mouse Serum): 2 µg/mL (≈ 2.92 µM) | MIC (S. aureus GC 2216; GC2216, read-out: MINIMAL INHIBITORY CONCENTRATION MIC, Water): 4 µg/mL (≈ 5.83 µM) | MIC (E. faecalis GC 2267; GC2267, read-out: MINIMAL INHIBITORY CONCENTRATION MIC, Human Serum): 4 µg/mL (≈ 5.83 µM) | MIC (E. faecalis GC 2267; GC2267, read-out: MINIMAL INHIBITORY CONCENTRATION MIC, Mouse Serum): 2 µg/mL (≈ 2.92 µM) | MIC (E. faecalis GC 2267; GC2267, read-out: MINIMAL INHIBITORY CONCENTRATION MIC, Water): 4 µg/mL (≈ 5.83 µM)
